Measurements taken from PMC8310135 (Viruses, 2021).
Where two headings read alike, the source gives them in different places.

How the values were obtained:
LASV = details: read-out: EC50 against LASV; cited from earlier work
rLUJV/ZsG = experiment: microbe, parasite or virus in culture; type: cell-based, Lujo virus
in vitro = details: human
LUJV = details: cited from earlier work

For C[C@@H](c1nc(-c2ccc(C#N)cc2)cs1)[C@](O)(Cn1cncn1)c1cc(F)ccc1F [Isavucanazole], the EC50 (LASV) is listed as 1.2 µM, the “SI (selectivity index, CC50 divided by EC50)” value (rLUJV/ZsG) is listed as 2.1 and the EC50 (rLUJV/ZsG; Mammarenavirus lujoense, Huh-7, read-out: EC50 (concentration inhibiting ZsG expression by 50%)) is listed as 6.1 ± 0.9 µM. It also gave an activity at 0.05 µM (rLUJV/ZsG; Mammarenavirus lujoense, Huh-7, 50 nM, read-out: Relative ZsG (%) Mean) of 73%, an activity at 0.5 µM (rLUJV/ZsG; Mammarenavirus lujoense, Huh-7, 500 nM, read-out: Relative ZsG (%) Mean) of 75% and an activity at 5 µM (rLUJV/ZsG; Mammarenavirus lujoense, Huh-7, 5000 nM, read-out: Relative ZsG (%) Mean) of 34%. The EC50 (rLUJV/ZsG; read-out: EC50 (concentration inhibiting ZsG expression by 50%)) was 6.11 ± 0.926 µM, the viability at 0.05 µM (in vitro) was 114% and the viability at 0.5 µM (in vitro) was 121%. The viability at 5 µM (in vitro) was 75%, the CC50 (in vitro; CC50 (50% cell cytotoxicity concentration)) was 12.7 ± 3.97 µM and the “inhibition of LUJV” value (LUJV) was “did not inhibit”.
